Measured values: US5153318A, “3'-Azido nucleoside compound” (Burroughs Wellcome Co., priority 1989, dated 1992)

Experiments:
[1] = test system: HIV-1 (strain 3B); assay: Anti-HIV-1 activity, reversal of cytopathic effect in MT4 cells (propidium iodide dye uptake); format: cell-based; settings: Human immunodeficiency virus 1, MT4, 120 h, 100XTCID50, five days, protection of 50% of the cells from cell killing
Procedure: i) Anti-HIV activity was determined by measuring the ability of the compound to reverse the cytopathic effect of HIV infection. This was determined by a quantitative assessment of cell growth monitored at the fifth day post infection by a propidium iodide dye uptake test. MT4 cells were incubated with 100XTCID50 of HIV-1 (strain 3B) or HIV-2 (Zagury strain) for one hour prior to addition of compound in six different concentrations varying from 2 to 200 μM. The cells were allowed to incubate for five days at 37° C. On day five, NP-40, a detergent, was added to a final concentration of 0.5% immediately prior to analysis. Cell number was determined using a method which measures the fluorescence of a dye (propidium iodide) which binds to DNA. Since the amount of DNA is directly proportional to cell number, this fluorescence assay is an indication of cell growth. While uninfected cells double in cell number several times during the five days duration of the assay. HIV-infected cells grow very little, if at all.

[2] = test system: human hepatitis B virus; assay: Anti-HBV activity in human HBV producer cell line of HepG2, 2.2.15; format: cell-based; settings: HepG2 2.2.15 cells, ten days; criterion at least 100-fold reduction of Dane particles and similar decrease of intracellular replicative intermediates
Procedure: ii) The human HBV producer cell line of HepG2, 2.2.15, described and characterized by Sells et al., PNAS 84:1005, 1987 and J. Virol. […] This cell line was utilized in vitro to identify compounds with anti-HBV activity.
To test compounds for antiviral activity, monolayer cultures were treated with compound. […], for ten days. Supernatant media containing extracellular virion DNA (Dane particles) were harvested on days three, six and ten, treated with proteinase K (1 mg/mL) and sodium dodecyl sulfate (1%), and incubated at 50° C. for one hour. DNA was extracted with equal volumes of phenol followed by chloroform and then precipitated by ammonium acetate and propanol. […] After precipitation by ammonium acetate and propanol, the intracellular DNA precipitate was dissolved, cut by restriction endonuclease, Hind III, applied to agarose gel and then treated as described by Southern to determine the quantity of replicative intermediate forms. The antiviral effect of the drug was determined by measuring at least a 100-fold reduction of the amount of Dane particles extruded into the culture medium and a similar decrease in the intracellular replicative intermediates.

Row | SMILES | IC50 [1] [µM] | inhibition of human hepatitis B virus [2]
1 | [N-]=[N+]=N[C@H]1C[C@H](n2cnc3c(OCc4ccccc4)nc(N)nc32)O[C@@H]1CO [Example 6b, 2-Amino-9-(3-azido-2,3-dideoxy-β-D-erythro-pentofuranosyl)-6-benzyloxy-9H-purine] | 8.9 | 
2 | CN(C)c1nc(N)nc2c1ncn2[C@H]1C[C@H](N=[N+]=[N-])[C@@H](CO)O1 [Example 7b, 2-Amino-9-(3-azido-2,3-dideoxy-β-D-erythro-pentofuranosyl)-6-dimethylamino-9H-purine] |  | strong inhibition
